The results in this text go back to patent US20080105961A1, “Ligands of the Molecule Fit (Agt-121) and their Pharmaceutical Use” (priority 2004, published 2008).

Marks after values point to notes of the source that are not given here.

The test system of assay [1] is FIT mRNA. The assay can be described thus: Hypothalamic FIT gene expression by semi-quantitative RT-PCR in ICV antisense-treated rats. Format: in vivo, Sprague Dawley rats. As to conditions: hypothalamus. The protocol:
To confirm endogenous suppression of FIT in antisense-treated Sprague Dawley rats, FIT mRNA in the hypothalamus of these animals was measured.

Assay [2] deals with FIT mRNA. The assay can be described thus: ICV infusion of FIT antisense ODN in Sprague Dawley rats: food intake and body weight. Format: in vivo. The protocol:
To confirm the appetite-suppressing and weight-reducing effects of central FIT suppression in an animal model other than P. obesus, the inventors performed the same experiments in Sprague Dawley rats. Male, 12 week old Sprague Dawley rats were infused with either saline, FIT antisense ODN, or jumbled ODN at 24 μg/day for four days. The sequence of the FIT antisense ODN and the jumbled ODN are the same as in Example 2 above.

The subject of assay [3] is FIT mRNA. In words: Pair-feeding study with indirect calorimetry (24 h): body weight, food intake, total energy expenditure. Format: in vivo, Sprague Dawley rats. The protocol: To investigate the mechanism of weight loss after FIT antisense treatment, a group of Sprague Dawley rats were pair fed to the average daily food intake levels of FIT antisense-treated rats, and indirect calorimetry (24 h) was performed before and after FIT antisense or jumbled ODN ICV infusion.
Total energy expenditure (TEE) was calculated from measurements of oxygen consumption and carbon dioxide production using indirect calorimetry (Ferrannini, 1988). Due to differences in body weight between the three groups of rats, TEE levels were calculated relative to whole body mass of the animals. […] FIT antisense-treated rats therefore have an inappropriately high level of energy expenditure for their body weight.

Assay [4] relates to FIT mRNA. The assay can be described thus: ICV infusion of FIT antisense ODN in Psammomys obesus: food intake and body weight. Format: in vivo. The procedure:
To further investigate the orexigenic properties of FIT intracerebroventricular (ICV) antisense suppression of FIT was performed. This involved the infusion of FIT antisense oligonucleotides (ODNs) directly into the lateral ventricle space of the brain to suppress endogenous FIT mRNA levels. The effects of this treatment on food intake and body weight were measured and compared to control animals infused with a jumbled sequence ODN, or saline alone. 18 week old, male, lean, normal glucose tolerant (nGT) P. obesus animals were utilised for this study and infused with either saline, FIT antisense ODN, or jumbled ODN at 24 μg/day for four days. The sequence of the FIT antisense ODN was 5′-mu*mg*mg*mc*ma*g*a*a*t*t*g*c*a*mu*mu*mc*mc*mu*-3′, and the jumbled ODN 5′-mc*mg*mc*ma*mc*t*t*a*g*c*t*a*c*mu*mu*mg*mc*mu-3′, where m indicates the presence of a 2′O-Methyl-modified base, and * indicates a phosphorothioate linkage.

In assay [5] the test system is melanocortin receptor. The assay can be described thus: Feeding response to ICV injection of SHU9119 after three days of ODN or saline infusion. Format: in vivo, Sprague Dawley rats. The source says: To further analyse the link between FIT and the melanocortin system, the feeding response of Sprague Dawley rats to an ICV injection of SHU9119, a melanocortin receptor antagonist and known feeding stimulator was investigated. After three days of FIT antisense treatment, jumbled oligonucleotide or saline infusion, responses were compared to rats receiving an ICV injection of saline vehicle rather than SHU9119.

Assay [6] relates to FIT mRNA. In words: Metabolic heat production by indirect calorimetry (FIG. 1). Format: in vivo, Sprague Dawley rats. As to conditions: Sprague Dawley rats, after three days of treatment. The source says: FIG. 1 is a graphical representation of metabolic heat production in Sprague Dawley rats after three days of FIT antisense-treatment compared to jumbled ad libitum fed and jumbled pair fed rats. *p<0.05 pair fed compared to jumbled group, #p<0.05 pair fed compared to FIT antisense-treated group, ̂p<0.05 compared to both jumbled and FIT antisense-treated groups. Data are mean ±SEM.
To further dissect the nature of the inability to reduce TEE levels after FIT antisense treatment, metabolic heat production was measured by indirect calorimetry.

In assay [7] the target is T1, MC4R (Rattus norvegicus, UniProt P70596).
T1 construct: from tissue; host or cells: living Sprague Dawley rats (brain)
T1 sequence (P70596 whole entry): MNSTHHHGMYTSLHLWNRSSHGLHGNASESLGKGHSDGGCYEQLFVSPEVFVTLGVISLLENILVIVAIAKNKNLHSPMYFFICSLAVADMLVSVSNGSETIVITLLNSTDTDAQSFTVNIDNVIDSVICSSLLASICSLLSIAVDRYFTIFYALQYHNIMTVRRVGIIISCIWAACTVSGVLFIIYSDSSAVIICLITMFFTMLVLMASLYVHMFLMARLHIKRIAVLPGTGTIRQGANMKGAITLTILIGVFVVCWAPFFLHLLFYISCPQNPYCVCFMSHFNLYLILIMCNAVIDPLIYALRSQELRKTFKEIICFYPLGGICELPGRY
In words: Feeding response to MT II after ODN or saline infusion. Format: in vivo, Sprague Dawley rats. As to conditions: mean ± SEM. The procedure:
To further investigate this relationship, antisense suppression of FIT in Sprague Dawley rats was again performed and these animals' responses to administration of the α-MSH analog MT II, a synthetic agonist of the MC4R and known suppressor of feeding. MT II effects on food intake and body weight in saline and jumbled ODN-treated control rats, as well as in FIT antisense-treated rats was measured.

For assay [8], the target named is T2, SH3GL2; endophilin 1 (human, UniProt Q99962 1-352).
T2 construct: Prey clone from a human brain cDNA library; not shown: not specified
T2 sequence (Q99962 whole entry): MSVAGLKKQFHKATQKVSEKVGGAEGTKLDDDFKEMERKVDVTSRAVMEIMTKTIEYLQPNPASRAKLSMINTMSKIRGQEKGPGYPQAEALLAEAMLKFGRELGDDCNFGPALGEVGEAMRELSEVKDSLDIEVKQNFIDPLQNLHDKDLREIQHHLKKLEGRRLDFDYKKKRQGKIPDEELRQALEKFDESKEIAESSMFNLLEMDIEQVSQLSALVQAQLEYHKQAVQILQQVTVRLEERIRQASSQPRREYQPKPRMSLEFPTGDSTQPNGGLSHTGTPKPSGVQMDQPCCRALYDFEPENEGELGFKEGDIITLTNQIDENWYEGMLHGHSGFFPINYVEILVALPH
The assay can be described thus: yeast two-hybrid screen of a human brain cDNA library (12 clones). An excerpt:
The inventors utilised a yeast two-hybrid system which incorporates modifications by Chevray and Nathans (1992), and Vidal et al. (1996) to screen a human brain cDNA library.

[9] abbreviates: ICV 24 μg/day, day 1, mean ± SEM.
The mark [10] stands for this setting: ICV 24 μg/day, day 2, mean ± SEM.
Setting [11] is: ICV 24 μg/day, day 3, mean ± SEM.
Setting [12] is: ICV 24 μg/day, day 4, mean ± SEM.
Setting [13] is: baseline body weight, mean ± SEM.
The mark [14] stands for this setting: change compared to day 0, mean ± SEM.
Where [15] appears, read: not pair fed (jumbled group ad libitum fed), mean ± SEM.

Regarding “5′-mu*mg*mg*mc*ma*g*a*a*t*t*g*c*a*mu*mu*mc*mc*mu*-3′ [FIT antisense]”, the FIT gene expression in assay [1] (ICV-treated Sprague Dawley rats, mean ± SEM) is listed as 6.6 ± 1.0^a arbitrary units. The “FIT gene expression suppressed compared to jumbled-treated rats” value in assay [1] (Sprague Dawley rats) is 20%. The “FIT gene expression suppressed compared to saline-treated rats” value in assay [1] (Sprague Dawley rats) stood at 37%. The “Cumulative food intake, Day 1 Food” value in assay [2] (setting [9]) was 8.6 ± 1.6^a,b g; in assay [4] (setting [9]), 6.5 ± 1.6^a g. Besides, the “Cumulative food intake, Day 2 Food” value in assay [2] (setting [10]) is 23.4 ± 2.6^a,b g; in assay [4] (setting [10]) it was 12.3 ± 2.9^a g. Also, the entries for the “Cumulative food intake, Day 3 Food” value in assay [2] (setting [11]) and in assay [4] (setting [11]) were 38.3 ± 3.6^a,b g and 18.9 ± 3.9^a g, respectively. Besides, the “Cumulative food intake, Day 4 Food” value in assay [2] (setting [12]) was 55.0 ± 4.9^a,b g; in assay [4] (setting [12]), 27.4 ± 4.4^a,b g. The “Day 1 BW” value came out at 425 ± 37 g in assay [2] (ICV 24 μg/day, mean ± SEM) and 195 ± 7 g in assay [4] (ICV 24 μg/day, mean ± SEM). Also, the “Day 2 BW” value in assay [2] (ICV 24 μg/day, mean ± SEM) worked out at 415 ± 37 g; in assay [4] (ICV 24 μg/day, mean ± SEM), 194 ± 8 g. The “Day 3 BW” value is given as 410 ± 38^a g in assay [2] (ICV 24 μg/day, mean ± SEM) and 192 ± 7 g in assay [4] (ICV 24 μg/day, mean ± SEM). The “Day 4 BW” value in assay [2] (ICV 24 μg/day, mean ± SEM) is 408 ± 37^a g; in assay [3] (setting [15]), 338 ± 12^a,c g; in assay [4] (ICV 24 μg/day, mean ± SEM), 190 ± 7 g. For the same molecule, the “Day 0 BW” value amounted to 444 ± 37 g in assay [2] (setting [13]); 408 ± 13 g in assay [3] (not pair fed (jumbled group ad libitum fed), baseline, mean ± SEM); 199 ± 7 g in assay [4] (setting [13]). In addition, the entries for the “Day 1 ΔBW” value in assay [2] (setting [14]) and in assay [4] (setting [14]) were −19.6 ± 2.9^b g and −4.5 ± 0.7^a g, respectively. Also, the “Day 2 ΔBW” value in assay [2] (setting [14]) is reported as −28.8 ± 4.1^a,b g; in assay [4] (setting [14]), −5.7 ± 2.1^a g. In addition, the entries for the “Day 3 ΔBW” value in assay [2] (setting [14]) and in assay [4] (setting [14]) were −34.4 ± 4.1^a,b g and −7.7 ± 1.8^a g, respectively. The “Day 4 ΔBW” value is recorded as −36.6 ± 6.7^a,b g in assay [2] (setting [14]) and −9.2 ± 1.5^a,b g in assay [4] (setting [14]). Further, in assay [3] (Sprague Dawley rats, TEE relative to whole body mass), the “ability to reduce TEE levels” value is on record as “unable to significantly reduce”. In assay [3] (setting [15]), the “Food Intake” value is recorded as 36.4 ± 11.2^a g. The “Δ BW” value in assay [3] (setting [15]) is −70.0 ± 8.6^a,b g. Moreover, the “Δ TEE” value in assay [3] (not pair fed, mean ± SEM) is -67 ± 25 kJ/day/kg. The “Post TEE” value in assay [3] (not pair fed, total energy expenditure after ICV infusion, mean ± SEM) stood at 525 ± 22 kJ/day/kg. For the same molecule, the “Pre TEE” value in assay [3] (not pair fed, total energy expenditure before ICV infusion, mean ± SEM) worked out at 592 ± 30 kJ/day/kg. For the same molecule, the “cumulative food intake compared to jumbled oligonucleotide-infused and saline-treated control animals” value in assay [4] (ICV, after four days of treatment) is given as “significantly reduced”. The “Δ FI” value in assay [5] (48 hr food intake post minus pre injection, mean ± SEM) is 0.02 ± 0.01 g/g BW; in assay [7] (24 hr food intake post minus pre injection), −0.01 ± 0.01^c g/g BW. In assay [5] (food intake relative to body weight, after ICV SHU9119 or vehicle injection, mean ± SEM), the “48 hr FI post injection” value is on record as 0.09 ± 0.01^b,d g/g BW. The “48 hr FI pre injection” value in assay [5] (food intake relative to body weight, during ICV infusion, before SHU9119 or vehicle injection, mean ± SEM) is listed as 0.07 ± 0.01^b g/g BW. The “feeding response after SHU9119 injection compared to jumbled-treated or saline-treated rats” value in assay [5] (relative to body weight) is “significantly increased”. For the same molecule, the metabolic heat production entry in assay [6] is “inability to reduce heat production”. For the same molecule, the “24 hr FI post injection” value in assay [7] (food intake after MT II or vehicle injection) was determined as 0.03 ± 0.01 g/g BW. For the same molecule, in assay [7] (food intake, during ICV infusion, before MT II or vehicle injection), the “24 hr FI pre injection” value is listed as 0.04 ± 0.01^d g/g BW.

B1: FIT-PR (FIT proline-rich region), yeast two-hybrid bait (other, not shown: small tags and cut ends)
chain: RPFPTGTPPPLPPKTVPATPPRTGSPLTVATGNDQAATEAKIEKPPSISDLDSIFGPVLSPKSVAVNTEETWVHFSDASPEHVTPELTPREKVVTPPAASDIPADSPTPGPPGPPGSAGPPGPPGPRNVPSPLNLEEVQKKVAEQTFIKDDYLETLSSPKECGLGQRATPPPPPPPTYRTVVSSPGPGSGSGTGTASGASSPARPATPLVPCSCSTPPPPPPRPPSRPKLPPGKPGVGDVSRPFSPPIHSSSPPPIAPL
notes: Truncated fragment of FIT used as bait in a yeast two-hybrid screen of a human brain cDNA library; also called AGT-121
In the case of B1, the binding result in assay [8] is given as “binds”.
